Legend:
Human COX-1 = molecular target: T1, Human COX-1 (Homo sapiens, UniProt P23219); assay: COX-1 enzyme activity in human whole blood (A23187-stimulated, thromboxane B2 EIA); assay type: cell-based; settings: 100 μM test compound
T1 construct: Human blood (≈50 mL) from male or female donors who had not received any aspirin or NSAIDs for 14 days was collected; endogenous in cells; host or cells: human whole blood from donors, heparinised, stimulated with calcium ionophore A23187
Procedure: (§1) The assay for COX-1 and COX-2 enzyme activity, in the human whole blood was performed as described in Brideau et al., Inflamm Res., 45: 68-74 (1996)). Human blood (≈50 mL) from male or female donors who had not received any aspirin or NSAIDs for 14 days was collected at two local area blood donor centers and placed in polypropylene syringes containing sodium heparin (20 units per mL blood, final concentration). The blood was transported to the laboratory on ice packs and used within 1.5 hours of collection. Upon receipt in the laboratory, the blood was allowed to come to room temperature for 15 minutes prior to distribution in 1 mL aliquots per well of 24 well tissue culture plates. The plates were then placed on a gently rotating platform shaker in a 5% CO2 incubator at 37° C. for 15 minutes. Test compounds were dissolved in DMSO, at 1000 fold the final desired concentration, and further diluted, as indicated, in DMSO. One μL of each dilution of the test compound was added per well, in duplicate wells; wells not receiving test compound (e.g., basal, background or control wells) received 1 μL DMSO.
(§2) To induce COX-2, lipopolysaccharide (LPS) from E. coli (LPS, serotype 026:B6 or serotype 0127:B8, Sigma Chemical Co., St. Louis, Mo., Catalogue No. L3755 or L3129, respectively) was added at 10 μg/mL (2 μL of 5 mg/mL LPS in DMSO) to appropriate wells 15 minutes after the addition of the test compound. (Basal or background wells not incubated with LPS received 2 μL of DMSO.) For the stimulation of COX-1, the calcium ionophore, A23187 (free acid from Sigma Chemical Co., St. Louis, Mo., Catalogue No. C7522) was added at 25 μM (1 μL of 25 mM stock in DMSO) to separate wells 4.5 hours after the addition of the test compound. (Again, basal, background or control wells not stimulated with A23187 received 1 μL of DMSO.) At 5 hours after the addition of the test compound, all incubations were terminated by placement on ice and the addition of 2 mM EGTA (100 μL of 20 mM EGTA, tetrasodium, in PBS (phosphate buffered saline) without Ca^++ and Mg^++, pH 7.2)). The resulting solutions, were transferred by polyethylene transfer pipettes to 15 mL polypropylene centrifuge tubes and centrifuged at 1200 g for 10 minutes at 4° C. One hundred μL of plasma was removed from each blood sample and added to 1 mL of methanol in new 15 mL polypropylene centrifuge tubes, vortexed, and stored overnight at −20° C. The next day, the samples were centrifuged at 2000 g for 10 minutes at 4° C. and the supernatants transferred to glass tubes and evaporated to dryness. The samples were assayed for thromboxane B2 using EIA kits supplied by Cayman Chemical Co. (Ann Arbor, Mich., Catalogue No. 519031) in duplicate wells after reconstitution with EIA Buffer and appropriate dilution (2000 fold for COX-1 and 500 fold for Cox-2 samples).
The % inhibition for COX-1 and COX-2 enzyme activity in human whole blood by the test compounds, at the indicated concentrations, are given in Table 1.

Human COX-2 = molecular target: T2, Human COX-2 (Homo sapiens, UniProt P35354); assay: COX-2 enzyme activity in human whole blood (LPS-induced, thromboxane B2 EIA); assay type: cell-based
T2 construct: Human blood (≈50 mL) from male or female donors who had not received any aspirin or NSAIDs for 14 days was collected; endogenous in cells; host or cells: human whole blood from donors, heparinised, COX-2 induced with E. coli LPS
T2 sequence (P35354 18-604): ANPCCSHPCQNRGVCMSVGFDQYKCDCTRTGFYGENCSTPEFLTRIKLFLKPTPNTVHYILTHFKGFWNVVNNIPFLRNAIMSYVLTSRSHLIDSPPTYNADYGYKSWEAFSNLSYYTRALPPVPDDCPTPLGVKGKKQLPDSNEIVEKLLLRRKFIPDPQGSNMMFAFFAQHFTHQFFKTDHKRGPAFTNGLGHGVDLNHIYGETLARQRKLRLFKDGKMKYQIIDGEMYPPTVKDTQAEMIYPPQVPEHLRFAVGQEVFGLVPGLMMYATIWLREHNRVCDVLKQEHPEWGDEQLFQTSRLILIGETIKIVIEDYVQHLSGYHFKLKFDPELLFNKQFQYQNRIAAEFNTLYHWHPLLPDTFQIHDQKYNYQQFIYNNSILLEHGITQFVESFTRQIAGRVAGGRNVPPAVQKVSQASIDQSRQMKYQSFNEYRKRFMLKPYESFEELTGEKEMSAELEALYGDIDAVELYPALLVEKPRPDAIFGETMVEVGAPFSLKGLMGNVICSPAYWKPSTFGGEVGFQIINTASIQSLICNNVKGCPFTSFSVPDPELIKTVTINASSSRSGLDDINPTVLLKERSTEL
Procedure: as §1, with “Human” for “The assay for COX-1 and COX-2 enzyme activity, in the human whole blood was performed as described in Brideau et al., Inflamm Res., 45: 68-74 (1996)). Human”
as §2, with “(Basal” for “To induce COX-2, lipopolysaccharide (LPS) from E. coli (LPS, serotype 026:B6 or serotype 0127:B8, Sigma Chemical Co., St. Louis, Mo., Catalogue No. L3755 or L3129, respectively) was added at 10 μg/mL (2 μL of 5 mg/mL LPS in DMSO) to appropriate wells 15 minutes after the addition of the test compound. (Basal”, “dryness.” for “dryness. The samples were assayed for thromboxane B2 using EIA kits supplied by Cayman Chemical Co. (Ann Arbor, Mich., Catalogue No. 519031) in duplicate wells after reconstitution with EIA Buffer and appropriate dilution (2000 fold for COX-1 and 500 fold for Cox-2 samples).”

T1 sequence (P23219 24-599): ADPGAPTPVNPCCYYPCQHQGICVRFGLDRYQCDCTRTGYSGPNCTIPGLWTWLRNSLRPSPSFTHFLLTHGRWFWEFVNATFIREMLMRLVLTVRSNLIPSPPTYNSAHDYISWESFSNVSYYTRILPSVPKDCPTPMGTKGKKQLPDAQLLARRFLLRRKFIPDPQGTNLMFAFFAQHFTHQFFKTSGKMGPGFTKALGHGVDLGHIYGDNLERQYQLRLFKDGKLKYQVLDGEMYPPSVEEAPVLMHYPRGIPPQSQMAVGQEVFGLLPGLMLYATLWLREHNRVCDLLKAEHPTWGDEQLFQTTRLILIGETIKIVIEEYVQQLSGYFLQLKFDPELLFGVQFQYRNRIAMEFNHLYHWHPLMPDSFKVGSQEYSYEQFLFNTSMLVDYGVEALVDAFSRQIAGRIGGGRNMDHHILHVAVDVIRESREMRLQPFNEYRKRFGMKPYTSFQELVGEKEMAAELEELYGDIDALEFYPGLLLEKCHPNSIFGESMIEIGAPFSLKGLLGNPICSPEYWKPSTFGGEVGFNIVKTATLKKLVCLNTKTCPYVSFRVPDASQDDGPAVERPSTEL

melting point | inhibition at 100 µM (Human COX-1) | inhibition at 1 µM (Human COX-2; 1 μM test compound) | inhibition at 10 µM (Human COX-2; 10 μM test compound) | COX-1 Inhibition (% at 100 μM) (Human COX-1) | COX-2 Inhibition (% at 1 μM) (Human COX-2; 1 μM test compound) | COX-2 Inhibition (% at 10 μM) (Human COX-2; 10 μM test compound) | SMILES
143 to 147 °C | 0% | 0% | 15% | – | – | – | CS(=O)(=O)c1ccc(-c2ncccc2C(=O)c2ccccn2)cc1 [Example 11b, 2-(4-(Methylsulfonyl)phenyl)(3-pyridyl) 2-pyridyl Ketone]
76 to 77 °C | 90% | 75% | 100% | – | – | – | CS(=O)(=O)c1ccc(-c2cc(CCCO[N+](=O)[O-])nn2CC2CCCCC2)cc1 [Example 5c, 1-(1-(Cyclohexylmethyl)-3-(3-(nitrooxy)propyl)pyrazol-5-yl)-4-(methylsulfonyl)benzene]
136 to 138 °C | 30% | 70% | 100% | – | – | – | C=Cc1cc(-c2ccc(S(C)(=O)=O)cc2)n(CC2CCCCC2)n1 [Example 6b, 1-(1-(Cyclohexylmethyl)-3-vinylpyrazol-5-yl)-4-(methylsulfonyl)benzene]
93 to 94 °C | 55% | 20% | 40% | – | – | – | CS(=O)(=O)c1ccc(-c2cc(CO[N+](=O)[O-])nn2Cc2ccccc2)cc1 [Example 3d, 4-(Methylsulfonyl)-1-(3-((nitrooxyl)methyl)-1-benzylpyrazol-5-yl)benzene]
– | 5% | 55% | 50% | – | – | – | CS(=O)(=O)c1ccc(-c2ncccc2C(=O)c2cccc(F)c2)cc1 [Example 10c, 3-Fluorophenyl 2-(4-methylsulfonylphenyl)(3-pyridyl) ketone]
– | -10% | 35% | 55% | – | – | – | CS(=O)(=O)c1ccc(-c2cc(C(F)(F)F)cnc2C(C#N)c2ccccc2)cc1 (stereo not drawn) [Example 9b, 2-(3-(4-(methylsulfonyl)phenyl)-5-(trifluoromethyl)(2-pyridyl))-2-phenylethanenitrile]
– | 90% | 45% | 90% | – | – | – | CS(=O)(=O)c1ccc(-c2cc(CCCO)nn2CC2CCCCC2)cc1 [Example 5b, 1-(1-(Cyclohexylmethyl)-3-(3-hydroxypropyl)pyrazol-5-yl)-4-(methylsulfonyl)benzene]
– | 50% | 25% | 45% | – | – | – | CS(=O)(=O)c1ccc(-c2cc(/C=C/CO)nn2CC2CCCCC2)cc1 [Example 4d, 1-(3-((1E)-3-Hydroxyprop-1-enyl)-1-(cyclohexylmethyl)pyrazol-5-yl)-4-(methylsulfonyl)benzene]
– | 65% | 25% | 65% | – | – | – | CS(=O)(=O)c1ccc(-c2cc(COCCO)nn2CC2CCCCC2)cc1 [Example 2e, 4-(1-(Cyclohexylmethyl)-3-((2-hydroxyethoxy)methyl)pyrazol-5-yl)-1 (methylsulfonyl)benzene]
141 to 142 °C | 90% | – | – | – | – | – | CS(=O)(=O)c1ccc(-c2cc(C(F)(F)F)cnc2C(=O)c2ccccc2)cc1 [Example 9a, 3-(4-(Methylsulfonyl)phenyl)-5-(trifluoromethyl)(2-pyridyl) Phenyl Ketone]
– | – | – | – | 5% | 15% | 30% | COC(=O)/C=C/c1cc(-c2ccc(S(C)(=O)=O)cc2)n(CC2CCCCC2)n1 [Example 7, Methyl (2E)-3-(1-(cyclohexylmethyl)-5-(4-(methylsulfonyl)phenyl)pyrazol-3-yl) prop-2-enoate]
– | 65% | 0% | 45% | – | – | – | CS(=O)(=O)c1ccc(-c2cc(CO)nn2CC2CCCCC2)cc1 [Example 1g, 1-(1-(Cyclohexylmethyl)-3-(hydroxymethyl)pyrazol-5-yl)-4-(methylsulfonyl)benzene]
142 to 143 °C | 55% | 15% | 25% | – | – | – | COC(=O)c1cc(-c2ccc(S(C)(=O)=O)cc2)n(Cc2ccccc2)n1 [Example 8, Methyl 5-(4-(methylsulfonyl)phenyl)-1-benzylpyrazole-3-carboxylate]
44 to 47 °C | 40% | 35% | 75% | – | – | – | CS(=O)(=O)c1ccc(-c2cc(/C=C/CO[N+](=O)[O-])nn2CC2CCCCC2)cc1 [Example 4e, 1-(3-((1E)-3-Nitrooxyprop-1-enyl)-1-(cyclohexylmethyl)pyrazol-5-yl)-4-(methylsulfonyl)benzene]
125 to 132 °C | 25% | 10% | 20% | – | – | – | CCOC(=O)c1cccc(C(=O)c2cccnc2-c2ccc(S(C)(=O)=O)cc2)c1 [Example 12b, Ethyl 3-((2-(4-(methylsulfonyl)phenyl)-3-pyridyl)carbonyl)benzoate]
– | 25% | 10% | 15% | – | – | – | CS(=O)(=O)c1ccc(-c2cc(CO)nn2Cc2ccccc2)cc1 [Example 3c, 1-(3-(Hydroxymethyl)-1-benzylpyrazol-5-yl)-4-(methylsulfonyl)benzene]

Source: US7244753B2, “Cyclooxygenase-2 selective inhibitors, compositions and methods of use” (NitroMed, Inc., priority 2002, dated 2007)
